Measured values reported in ChEMBL document CHEMBL6109060, “Potent HIV‑1 protease inhibitors containing oxabicyclo octanol-derived P2-ligands: Design, synthesis, and X‑ray structural studies of inhibitor-HIV-1 protease complexes” (Bioorg Med Chem Lett, 2025).

Key:
[1] = biological target: Human immunodeficiency virus type 1 protease (Human immunodeficiency virus 1, UniProt Q72874); assay: Inhibition of HIV-1 protease using Abz-Thr-Ile-Nle-Phe-(p-NO2)-Gln-Arg-NH2 as substrate preincubated for 5 to 10 mins followed by substrate addition and measured after 1 hr by spectrofluorometric assay
[2] = tested on: Human immunodeficiency virus 1; assay: Antiviral activity against HIV-1 LAI infected in human MT2 cells reduction in virus-induced cytopathic effect measured after 7 days by MTT assay; assay type: functional, organism-based; conditions: Human immunodeficiency virus 1, LAI, MT2, 168 h

COc1ccc(S(=O)(=O)N(CC(C)C)C[C@@H](O)[C@H](Cc2ccccc2)NC(=O)O[C@H]2CC[C@@H]3C[C@H]4CO[C@@H](C(C)C)[C@@]42O3)cc1
Ki [1]: 855 nM

COc1ccc(S(=O)(=O)N(CC(C)C)C[C@@H](O)[C@H](Cc2ccccc2)NC(=O)O[C@@H]2CC[C@@H]3C[C@H]4CO[C@@H](C(C)C)[C@@]42O3)cc1
Ki [1]: 620 nM | EC50 [2]: > 1000 nM

COc1ccc(S(=O)(=O)N(CC(C)C)C[C@@H](O)[C@H](Cc2ccccc2)NC(=O)O[C@@H]2CC[C@@H]3C[C@H]4CO[C@@H](C)[C@@]42O3)cc1
Ki [1]: 20.6 nM | EC50 [2]: > 1000 nM

COc1ccc(S(=O)(=O)N(CC(C)C)C[C@@H](O)[C@H](Cc2ccccc2)NC(=O)O[C@H]2CC[C@@H]3C[C@H]4CO[C@@H](c5ccccc5)[C@@]42O3)cc1
Ki [1]: 43 nM | EC50 [2]: > 1000 nM

COc1ccc(S(=O)(=O)N(CC(C)C)C[C@@H](O)[C@H](Cc2ccccc2)NC(=O)O[C@H]2CC[C@@H]3C[C@H]4CO[C@@H](C)[C@@]42O3)cc1
Ki [1]: 1.65 nM | EC50 [2]: 240 nM

COc1ccc(S(=O)(=O)N(CC(C)C)C[C@@H](O)[C@H](Cc2ccccc2)NC(=O)O[C@@H]2CC[C@@H]3C[C@H]4CO[C@@H](c5ccccc5)[C@@]42O3)cc1
Ki [1]: 1300 nM | EC50 [2]: > 1000 nM

COc1ccc(S(=O)(=O)N(CC(C)C)C[C@@H](O)[C@H](Cc2ccccc2)NC(=O)O[C@@H]2CC[C@H]3C[C@@H]4CO[C@H](c5ccccc5)[C@]42O3)cc1
Ki [1]: 272 nM | EC50 [2]: > 1000 nM

COc1ccc(S(=O)(=O)N(CC(C)C)C[C@@H](O)[C@H](Cc2ccccc2)NC(=O)O[C@H]2CC[C@H]3C[C@@H]4CO[C@H](c5ccccc5)[C@]42O3)cc1
Ki [1]: 424 nM | EC50 [2]: > 1000 nM
